Results on 23 molecules are retold here after patent US20260176300A1, “N-ARYLPYRAZOLE NOD2 AGONISTS AS PROMOTERS OF IMMUNE CHECKPOINT INHIBITOR THERAPY” (THE SCRIPPS RESEARCH INSTITUTE, priority 2022, published 2026).

In the assay the target is T1, NOD2 (Homo sapiens, UniProt Q9HC29).
T1 construct: host or cells: HEK-293T-derived HEK-Blue NF-kB/SEAP reporter cells
The assay can be described thus: NOD2-HEK-Blue NF-κB reporter cell activation assay (NOD2-expressing HEK-293T cells). The assay is classed as cell-based. The note with it: for EC50: calculated, three-parameter dose-response nonlinear regression, read-out: pEC50 (μM), dose-dependent activation of NOD2-expressing HEK-293T cells (converted); for Potency in structure-activity comparison: relative to TT007, FIG. 2B, 2D, 2F, 6E; for Activation of NOD2-expressing HEK-293T cells, colorimetric assay: 10 µM, 16 h (FIG. 1E); for NOD2 activation, result in words in the pEC50 column: Table 1. The source says:
FIG. 1(A-F). Virtual screening for small molecule NOD2 agonists. A, Docked structure of muramyl dipeptide (MDP) in the leucine-rich repeat (LRR) domain of rabbit NOD2 (pdb 5IRM). […] B, Results of virtual docking approach with reported chemical structures related to MDP. C, Workflow of virtual screening in which a library was generated using carboxylic acids appended to the L-Val-D-Glu dipeptide and then docked to the NOD2 LRR domain. D, Desmuramyl MDP (dMDP) structures resulting from the virtual screen that were synthesized for further screening. Chemicals shown as a pure enantiomer were synthesized as a racemic mixture. E, Activation of NOD2-expressing HEK-293T cells treated for 16 h with 10 µM of the indicated compound using a colorimetric assay. F, Dose-dependent activation of NOD2-expressing HEK-293T cells using the indicated compounds. Numbers in parentheses represent calculated negative log of the half maximal effective concentration (pEC50) values. NOD activation assays were analyzed using a one-way ANOVA with Dunnett's multiple comparisons test compared to the DMSO control. pEC50 values were derived by a three-parameter dose-response nonlinear regression. ****P<0.0001.
FIG. 2(A-G). Structure-activity relationship studies of 3,5-dimethyl-N-arylpyrazole NOD2 agonists. A, Structures of 3,5-dimethyl-N-arylpyrazole structures synthesized for SAR studies. B-F, Dose-dependent activation of NOD2-expressing HEK-293T cells using the indicated compounds grouped by similar structural perturbations. Numbers in parentheses represent calculated pEC50 values. G, Graph of calculated pEC50 values vs. calculated partition coefficient (clogP). Dotted lines show equivalent lipophilic ligand efficiency (LLE) values. Red arrow indicates optimization of the TT007 scaffold to TT030. pEC50 values were derived by a three-parameter dose-response nonlinear regression.
Cell culture. The following cell lines were used and sourced as follows: HEK-Blue NOD2 (InvivoGen, hkb-hnod2), HEK-Blue NOD1 (InvivoGen, hkb-nod1), HEK-Blue Null2 (hkb-null2), and B16-F10 (ATCC CRL-6475). All cell lines were cultured at 37° C. in 5% CO2 in DMEM (ThermoFisher, 11995065) supplemented with 10% fetal bovine serum (FBS), 100 U mL-1 penicillin, and 100 μg mL-1 streptomycin. Cells were maintained at no greater than 70% confluency and subcultured using TrypLE Express. Cell lines were routinely cultured without antibiotics to ensure no bacterial infection and tested for mycoplasma using a Universal Mycoplasma Detection Kit (ATCC 30-1012K). Primary human peripheral mononuclear blood cells (PBMCs) were cultured at 37° C. in 5% CO2 in RPMI 1640 (ThermoFisher, 61870143) supplemented with 10% FBS. All experimental work using human samples was reviewed and approved by the Scripps Research Institutional Review Board (Protocol IRB-21-7816NOD2).
Reporter cell line activation assay. Approximately 24 h before the assay, culture medium for each of the HEK-Blue reporter cell lines was replaced with a 1:1 mixture of DMEM supplemented with 10% FBS and OptiMEM. On the day of the assay, single cell suspensions (150,000 cells/mL) were produced in HEK-Blue detection medium (InvivoGen, hb-det2). Cells were aliquoted at 200 μL per well of a 96-well plate containing 0.2 μL of a 1000× stock of each test compound in DMSO. Cells were then incubated at 37° C. in 5% CO2 for 8-10 h. To measure activity, wells were then gently pipetted up and down to mix the conditioned medium, and absorbance from the colorimetric product of the secreted alkaline phosphatase was measured at 630 nm. In some assays, cells were stimulated for 16 h with compounds as described above in complete DMEM. Then, 20 μL of the conditioned medium was mixed with 180 μL QUANTI-Blue solution (InvivoGen, rep-qbs) and incubated for 2-4 h at 37° C. Activity was then measured by absorbance as described above.

T1 sequence (Q9HC29 whole entry): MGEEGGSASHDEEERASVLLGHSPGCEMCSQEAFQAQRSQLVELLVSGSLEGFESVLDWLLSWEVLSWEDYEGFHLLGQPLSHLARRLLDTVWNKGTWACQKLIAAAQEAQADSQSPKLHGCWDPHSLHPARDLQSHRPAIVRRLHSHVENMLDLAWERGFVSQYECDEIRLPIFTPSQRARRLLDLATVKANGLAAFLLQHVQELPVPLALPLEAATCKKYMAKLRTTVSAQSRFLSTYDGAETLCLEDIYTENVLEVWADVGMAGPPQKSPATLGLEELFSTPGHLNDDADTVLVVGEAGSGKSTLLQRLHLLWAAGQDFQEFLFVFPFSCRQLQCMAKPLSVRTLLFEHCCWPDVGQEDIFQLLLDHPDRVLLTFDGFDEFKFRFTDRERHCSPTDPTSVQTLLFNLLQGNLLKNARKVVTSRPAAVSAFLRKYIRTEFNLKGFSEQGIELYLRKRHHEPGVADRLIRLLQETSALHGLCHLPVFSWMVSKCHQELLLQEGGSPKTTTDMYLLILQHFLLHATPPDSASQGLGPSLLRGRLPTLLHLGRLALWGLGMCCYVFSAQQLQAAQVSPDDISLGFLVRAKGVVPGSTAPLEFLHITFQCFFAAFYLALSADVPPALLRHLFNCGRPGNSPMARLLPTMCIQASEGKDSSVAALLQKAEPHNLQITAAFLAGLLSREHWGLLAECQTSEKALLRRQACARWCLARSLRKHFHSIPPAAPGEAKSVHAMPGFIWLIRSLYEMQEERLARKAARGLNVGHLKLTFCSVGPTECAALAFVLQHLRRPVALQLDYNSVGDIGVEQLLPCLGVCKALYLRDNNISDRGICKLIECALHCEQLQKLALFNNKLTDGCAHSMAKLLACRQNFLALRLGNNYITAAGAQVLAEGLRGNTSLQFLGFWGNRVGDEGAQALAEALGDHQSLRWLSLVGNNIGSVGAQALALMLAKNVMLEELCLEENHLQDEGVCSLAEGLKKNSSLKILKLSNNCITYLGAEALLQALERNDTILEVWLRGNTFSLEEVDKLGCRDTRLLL

`CCOC(=O)CC[C@@H](NC(=O)[C@@H](NC(=O)c1cnn(-c2cccnc2)c1)C(C)C)C(=O)OCC` [TT037, diethyl (1-(pyridin-3-yl)-1H-pyrazole-4-carbonyl)-L-valyl-D-glutamate]: the EC50 was 5.01 µM. Consider `CCOC(=O)CC[C@@H](NC(=O)[C@@H](NC(=O)c1cn(-c2ccc(F)cc2)nc1C)C(C)C)C(=O)OCC` [TT011, Diethyl (1-(4-fluorophenyl)-3-methyl-1H-pyrazole-4-carbonyl)-L-valyl-D-glutamate], for which the EC50 was 10 µM and the “Potency in structure-activity comparison” value is “reduced potency by up to two orders of magnitude”. On to `CCOC(=O)CC[C@@H](NC(=O)[C@@H](NC(=O)c1c(C)nn(-c2cccc(OC)c2)c1C)C(C)C)C(=O)OCC` [TT036, Diethyl (1-(3-methoxyphenyl)-3,5-dimethyl-1H-pyrazole-4-carbonyl)-L-valyl-D-glutamate], for which the EC50 was 2.51 µM. As to `CCOC(=O)CC[C@@H](NC(=O)[C@@H](NC(=O)c1c(C)nn(-c2ccc3[nH]ccc3c2)c1C)C(C)C)C(=O)OCC` [TT028, Diethyl (1-(1H-indol-5-yl)-3,5-dimethyl-1H-pyrazole-4-carbonyl)-L-valyl-D-glutamate], the EC50 was 0.251 µM. The same measure, in the same setting: next, `CCOC(=O)CC[C@@H](NC(=O)[C@@H](NC(=O)c1cnn(-c2ccncc2)c1C)C(C)C)C(=O)OCC` [TT016, Diethyl (5-methyl-1-(pyridin-4-yl)-1H-pyrazole-4-carbonyl)-L-valyl-D-glutamate]: 79.4 µM.

For the molecule `CCOC(=O)CC[C@@H](NC(=O)[C@@H](NC(=O)c1cnn(-c2ccc(F)cc2)c1C)C(C)C)C(=O)OCC` [TT010, Diethyl (1-(4-fluorophenyl)-5-methyl-1H-pyrazole-4-carbonyl)-L-valyl-D-glutamate], the EC50 was 39.8 µM and the “Potency in structure-activity comparison” value is “reduced potency by up to two orders of magnitude”. As to `CCOC(=O)CC[C@@H](NC(=O)[C@@H](NC(=O)c1c(C)nn(-c2cccnc2)c1C)C(C)C)C(=O)OCC` [TT033, Diethyl (3,5-dimethyl-1-(pyridin-3-yl)-1H-pyrazole-4-carbonyl)-L-valyl-D-glutamate], the EC50 is 2.51 µM. For `CCOC(=O)CC[C@@H](NC(=O)[C@@H](NC(=O)c1cnn(-c2ccc(F)cc2)c1C(C)C)C(C)C)C(=O)OCC` [TT012, Diethyl (1-(4-fluorophenyl)-5-isopropyl-1H-pyrazole-4-carbonyl)-L-valyl-D-glutamate], the EC50 was 31.6 µM and the “Potency in structure-activity comparison” value was “did not compensate the lack of the other substituent”. In the case of `CCOC(=O)CC[C@@H](NC(=O)[C@@H](NC(=O)CNC(=O)/C=C/c1ccccc1)C(C)C)C(=O)OCC` [CinGVE, Diethyl cinnamoylglycyl-L-valyl-D-glutamate, reference compound], the EC50 is 1.26 µM. Same read-out and setting: next, `CCOC(=O)CC[C@@H](NC(=O)[C@@H](NC(=O)C1(Cc2ccc(F)cc2)CCCC1)C(C)C)C(=O)OCC` [TT003, Diethyl (1-(4-fluorobenzyl)cyclopentane-1-carbonyl)-L-valyl-D-glutamate]: 0.0501 µM.

Regarding `CCOC(=O)CC[C@@H](NC(=O)[C@@H](NC(=O)c1cn(-c2ccc(F)cc2)nc1-c1cccc(C)c1)C(C)C)C(=O)OCC` [TT009, Diethyl (1-(4-fluorophenyl)-3-(m-tolyl)-1H-pyrazole-4-carbonyl)-L-valyl-D-glutamate], the “Activation of NOD2-expressing HEK-293T cells, colorimetric assay” value was “inactive” and the “Potency in structure-activity comparison” value is listed as “did not compensate the lack of the other substituent”. In the case of `CCOC(=O)CC[C@@H](NC(=O)[C@@H](NC(=O)c1cnn(-c2ccccc2O)c1C)C(C)C)C(=O)OCC` [TT014, Diethyl (1-(2-hydroxyphenyl)-5-methyl-1H-pyrazole-4-carbonyl)-L-valyl-D-glutamate], the EC50 is 31.6 µM. The same measure, in the same setting: next, `C#CCCC1(CC(=O)N[C@H](C(=O)N[C@H](CCC(=O)OCC)C(=O)OCC)C(C)C)N=N1` [x-alk-VE]: 1.58 µM. `CCOC(=O)CC[C@@H](NC(=O)[C@@H](NC(=O)c1c(C)nn(-c2ccccc2)c1C)C(C)C)C(=O)OCC` [TT018, Diethyl (3,5-dimethyl-1-phenyl-1H-pyrazole-4-carbonyl)-L-valyl-D-glutamate]: the EC50 is 2.51 µM and the “Potency in structure-activity comparison” value is recorded as “did not yield compounds with appreciable differences in potency”. `CCOC(=O)CC[C@@H](NC(=O)[C@@H](NC(=O)c1c(C)nn(-c2cnc3[nH]ccc3c2)c1C)C(C)C)C(=O)OCC` [TT029, Diethyl (3,5-dimethyl-1-(1H-pyrrolo[2,3-b]pyridin-5-yl)-1H-pyrazole-4-carbonyl)-L-valyl-D-glutamate]: the EC50 was 0.398 µM. On to `CCOC(=O)CC[C@@H](NC(=O)[C@H](C(C)C)N(C)C(=O)c1cnn(-c2ccc(F)cc2)c1C)C(=O)OCC` [TT020, Diethyl N-(1-(4-fluorophenyl)-5-methyl-1H-pyrazole-4-carbonyl)-N-methyl-L-valyl-D-glutamate], for which the “Activity after N-methylation on Val” value (TT018 vs. TT019, TT010 vs. TT020, TT011 vs. TT021, FIG. 2C) is “abolished the activity”. Take `CCOC(=O)CC[C@@H](NC(=O)[C@@H](NC(=O)c1c(C)nn(-c2ccc(Cl)c(Cl)c2)c1C)C(C)C)C(=O)OCC` [TT022, Diethyl (1-(3,4-dichlorophenyl)-3,5-dimethyl-1H-pyrazole-4-carbonyl)-L-valyl-D-glutamate]: the EC50 is 1.26 µM and the “Potency in structure-activity comparison” value is listed as “slight increase”. As to `CCOC(=O)CC[C@@H](NC(=O)[C@@H](NC(=O)c1c(C)nn(-c2ccccn2)c1C)C(C)C)C(=O)OCC` [TT032, Diethyl (3,5-dimethyl-1-(pyridin-2-yl)-1H-pyrazole-4-carbonyl)-L-valyl-D-glutamate], the EC50 was 1.58 µM. In the case of `CCOC(=O)CC[C@@H](NC(=O)[C@@H](NC(=O)c1cn(-c2ccccc2)nc1-c1cccc(C)c1)C(C)C)C(=O)OCC` [TT008, Diethyl (1-phenyl-3-(m-tolyl)-1H-pyrazole-4-carbonyl)-L-valyl-D-glutamate], the “Activation of NOD2-expressing HEK-293T cells, colorimetric assay” value was “inactive”.

As for `CCOC(=O)CC[C@@H](NC(=O)[C@@H](NC(=O)/C=C/c1ccc(F)cc1)C(C)C)C(=O)OCC` [TT002, Diethyl ((E)-3-(4-fluorophenyl)acryloyl)-L-valyl-D-glutamate], the “NOD2 activation, result in words in the pEC50 column” value is recorded as “Active”. Still for that read-out and setting: next, `CCOC(=O)CC[C@@H](NC(=O)[C@@H](NC(=O)[C@@H]1C[C@H]1c1ccc(Cl)c(Cl)c1)C(C)C)C(=O)OCC` (racemic) [TT004, Diethyl (rac-(1R,2R)-2-(3,4-dichlorophenyl)cyclopropane-1-carbonyl)-L-valyl-D-glutamate]: “Active”. On to `CCOC(=O)CC[C@@H](NC(=O)[C@@H](NC(=O)c1c(C)nn(-c2ccc(Cl)cc2)c1C)C(C)C)C(=O)OCC` [TT024, Diethyl (1-(4-chlorophenyl)-3,5-dimethyl-1H-pyrazole-4-carbonyl)-L-valyl-D-glutamate], for which the EC50 is 1 µM and the “Potency in structure-activity comparison” value is “did not yield compounds with appreciable differences in potency”.

As for `CCOC(=O)CC[C@@H](NC(=O)[C@@H](NC(=O)C(C)Cc1ccc(F)c(F)c1)C(C)C)C(=O)OCC` (mixture of isomers) [TT005, Diethyl (3-(3,4-difluorophenyl)-2-methylpropanoyl)-L-valyl-D-glutamate], the EC50 is 0.631 µM.
